According to publication PMC5256054 (Iranian Journal of Parasitology, 2016):

Columns and labels:
P. falciparum strain K1 = details: read-out: IC50, P. falciparum strain K1; erythrocytic stages in vitro; ref [8]; cited from earlier work
[1] = system: P. falciparum strain NF54; details: read-out: IC50, P. falciparum strain NF54; erythrocytic stages in vitro; ref [8]; cited from earlier work
[2] = system: P. falciparum 3D7 chloroquine (CQ) sensitive strain; assay: In vitro antiplasmodial test, Giemsa-stained smear parasitemia count; format: cell-based; details: Plasmodium falciparum, 3D7, 24 h, read-out: P. falciparum IC50

Structure (SMILES) | IC50 (P. falciparum strain K1) [nM] | IC50 [1] [nM] | IC50 [2] [nM]
COc1cc(C=C2Oc3cc(OC(C)=O)cc(OC(C)=O)c3C2=O)cc(OC)c1OC(C)=O [4,6,4′-triacetyl-3′,5′-dimethoxy-2-aurone] | 7 | 180 | 
CCN(CC)CCCC(C)Nc1ccnc2cc(Cl)ccc12 (stereo not drawn) [CQ, Chloroquine] |  |  | 775
